Calls of active or inactive are those of the source. No rule for the calls is given here.
System: rodent lifetime carcinogenesis bioassay, tumor incidence TD50
Experiment: chronic cancer bioassays in animals – CPDB, compiled studies (AID 1745844)

Question: For `Cn1nc(CO)nc1NCCCOc1cccc(CN2CCCCC2)c1`, which TD50 (rat, strain Charles River CD (Sprague-Dawley), females, in feed, site: stomach, glandular, fundic region, lesion: carcinoid tumor, malignant, dosed 115 weeks, study length 115 weeks) is on record?
Answer: Its TD50 is 272 mg/kg/day.

Question: What about the TD50 (rat, strain Charles River CD (Sprague-Dawley), males, in feed, site: stomach, glandular, fundic region, lesion: carcinoid tumor, malignant, dosed 115 weeks, study length 115 weeks) of the same compound?
Answer: The TD50 was 2010 mg/kg/day.

Question: For `Nc1ccc(-c2ccc(N)c(O)c2)cc1O`, which TD50 (mouse, strain ICR/Jcl, males, in feed, site: liver, lesion: hepatoma, dosed 65 weeks, study length 65 weeks) is on record?
Answer: The TD50 was 353 mg/kg/day.

Question: How did the carcinogen call (rat, strain Wistar, males, in feed, site: stomach, glandular, lesion: one or several types, types not named, dosed 70 weeks, study length 70 weeks) turn out when `NCCCC(N)(C(=O)O)C(F)F` (stereo not given) was run?
Answer: Its carcinogen call is “negative (inactive)”.

Question: Which TD50 (rat, strain Sherman COBS, females, in feed, site: liver, lesion: hepatocellular carcinoma, dosed 89 weeks, study length 95 weeks) does the source give for `Clc1ccc(-c2ccc(Cl)c(Cl)c2Cl)c(Cl)c1Cl` here?
Answer: The TD50 was 18.3 mg/kg/day.

Question: What about the TD50 (rat, strain Sherman COBS, females, in feed, site: liver, lesion: neoplastic nodule, dosed 89 weeks, study length 95 weeks) of the same compound?
Answer: The TD50 was 1.76 mg/kg/day.

Question: And the TD50 (rat, strain Sherman COBS, females, in feed, site: liver, lesion: several types, types named in the paper, dosed 89 weeks, study length 95 weeks)?
Answer: Its TD50 is 1.04 mg/kg/day.

Question: And the TD50 (rat, strain Sprague-Dawley, females, in feed, site: liver, lesion: cholangioma, dosed 104 weeks, study length 104 weeks)?
Answer: The TD50 was 98.2 mg/kg/day.

Question: What about the TD50 (rat, strain Sprague-Dawley, females, in feed, site: liver, lesion: hepatocellular adenoma, dosed 104 weeks, study length 104 weeks) of the same compound?
Answer: Its TD50 is 6.43 mg/kg/day.

Question: And the TD50 (rat, strain Sprague-Dawley, females, in feed, site: liver, lesion: hepatocellular carcinoma, dosed 104 weeks, study length 104 weeks)?
Answer: The TD50 was 41.4 mg/kg/day.

Question: What about the TD50 (rat, strain Sprague-Dawley, females, in feed, site: liver, lesion: several types, types named in the paper, dosed 104 weeks, study length 104 weeks) of the same compound?
Answer: Its TD50 is 5.51 mg/kg/day.

Question: What about the TD50 (rat, strain Sprague-Dawley, males, in feed, site: liver, lesion: hepatocellular adenoma, dosed 104 weeks, study length 104 weeks) of the same compound?
Answer: Its TD50 is 24.8 mg/kg/day.

Question: What about the TD50 (rat, strain Sprague-Dawley, males, in feed, site: liver, lesion: hepatocellular carcinoma, dosed 104 weeks, study length 104 weeks) of the same compound?
Answer: Its TD50 is 121 mg/kg/day.

Question: And the TD50 (rat, strain Sprague-Dawley, males, in feed, site: liver, lesion: several types, types named in the paper, dosed 104 weeks, study length 104 weeks)?
Answer: The TD50 was 20 mg/kg/day.

Question: And the TD50 (rat, strain Sprague-Dawley, males, in feed, site: thyroid gland, lesion: follicular-cell adenoma, dosed 104 weeks, study length 104 weeks)?
Answer: Its TD50 is 11.4 mg/kg/day.

Question: And the TD50 (rat, strain Sprague-Dawley, males, in feed, site: thyroid gland, lesion: follicular-cell carcinoma, dosed 104 weeks, study length 104 weeks)?
Answer: Its TD50 is 232 mg/kg/day.

Question: What about the TD50 (rat, strain Sprague-Dawley, males, in feed, site: thyroid gland, lesion: several types, types named in the paper, dosed 104 weeks, study length 104 weeks) of the same compound?
Answer: Its TD50 is 10.3 mg/kg/day.

Question: What about the TD50 (rat, strain Wistar, males, in feed, site: liver, lesion: hepatocellular carcinoma, dosed 116 weeks, study length 116 weeks) of the same compound?
Answer: Its TD50 is 5.39 mg/kg/day.

Question: Which results are given for `CCn1cc(C(=O)O)c(=O)c2cc3c(cc21)OCO3`?
Answer: TD50 (mouse, strain ICR, females, in feed, site: liver, lesion: hepatocellular adenoma, dosed 78 weeks, study length 78 weeks): 572 mg/kg/day; TD50 (mouse, strain ICR, females, in feed, site: lung, lesion: adenoma, dosed 78 weeks, study length 78 weeks): 55.1 mg/kg/day; TD50 (rat, strain Wistar, females, in feed, site: any site (literature study), lesion: benign tumor, dosed 104 weeks, study length 104 weeks): 589 mg/kg/day; TD50 (rat, strain Wistar, females, in feed, site: any site (literature study), lesion: malignant tumor, dosed 104 weeks, study length 104 weeks): 1040 mg/kg/day; TD50 (rat, strain Wistar, females, in feed, site: any site (literature study), lesion: several types, types named in the paper, dosed 104 weeks, study length 104 weeks): 68.5 mg/kg/day; TD50 (rat, strain Wistar, females, in feed, site: liver, lesion: hepatocellular carcinoma, dosed 104 weeks, study length 104 weeks): 2440 mg/kg/day; TD50 (rat, strain Wistar, males, in feed, site: any site (literature study), lesion: malignant tumor, dosed 104 weeks, study length 104 weeks): 1790 mg/kg/day; TD50 (rat, strain Wistar, males, in feed, site: testis, lesion: Leydig-cell adenoma, dosed 104 weeks, study length 104 weeks): 167 mg/kg/day

Question: With `Cc1cc(O)cc(C)c1N(C)C` as the compound, how does the TD50 (mouse, strain B6AKF1, females, oral dosing, site: any site (literature study), lesion: several types, types named in the paper, dosed 76 weeks, study length 76 weeks) read?
Answer: Its TD50 is 220 mg/kg/day (inactive).

Question: And the carcinogen call (mouse, strain B6AKF1, females, oral dosing, site: liver, lesion: hepatoma, dosed 76 weeks, study length 76 weeks)?
Answer: The carcinogen call was “negative (inactive)”.

Question: What about the carcinogen call (mouse, strain B6AKF1, females, oral dosing, site: lung, lesion: adenoma, dosed 76 weeks, study length 76 weeks) of the same compound?
Answer: Its carcinogen call is “negative (inactive)”.

Question: And the TD50 (mouse, strain B6AKF1, males, oral dosing, site: any site (literature study), lesion: several types, types named in the paper, dosed 76 weeks, study length 76 weeks)?
Answer: The TD50 was 1190 mg/kg/day (inactive).

Question: What about the TD50 (mouse, strain B6AKF1, males, oral dosing, site: liver, lesion: hepatoma, dosed 76 weeks, study length 76 weeks) of the same compound?
Answer: The TD50 was 207 mg/kg/day (inactive).

Question: What about the carcinogen call (mouse, strain B6AKF1, males, oral dosing, site: lung, lesion: adenoma, dosed 76 weeks, study length 76 weeks) of the same compound?
Answer: Its carcinogen call is “negative (inactive)”.

Question: And the TD50 (mouse, strain B6C3F1, females, oral dosing, site: any site (literature study), lesion: several types, types named in the paper, dosed 76 weeks, study length 76 weeks)?
Answer: Its TD50 is 265 mg/kg/day (inactive).

Question: And the carcinogen call (mouse, strain B6C3F1, females, oral dosing, site: liver, lesion: hepatoma, dosed 76 weeks, study length 76 weeks)?
Answer: The carcinogen call was “negative (inactive)”.

Question: And the TD50 (mouse, strain B6C3F1, females, oral dosing, site: lung, lesion: adenoma, dosed 76 weeks, study length 76 weeks)?
Answer: Its TD50 is 265 mg/kg/day (inactive).

Question: And the TD50 (mouse, strain B6C3F1, males, oral dosing, site: any site (literature study), lesion: several types, types named in the paper, dosed 76 weeks, study length 76 weeks)?
Answer: Its TD50 is 34.8 mg/kg/day (inactive).

Question: What about the TD50 (mouse, strain B6C3F1, males, oral dosing, site: liver, lesion: hepatoma, dosed 76 weeks, study length 76 weeks) of the same compound?
Answer: Its TD50 is 247 mg/kg/day (inactive).

Question: What about the TD50 (mouse, strain B6C3F1, males, oral dosing, site: lung, lesion: adenoma, dosed 76 weeks, study length 76 weeks) of the same compound?
Answer: The TD50 was 56.1 mg/kg/day (inactive).

Question: `NC(=S)NNC=O` was tested. Which TD50 (rat, strain Sprague-Dawley, females, in feed, site: any site (literature study), lesion: several types, types named in the paper, dosed 46 weeks, study length 64 weeks) did it give?
Answer: Its TD50 is 140 mg/kg/day (inactive).

Question: How did the TD50 (rat, strain Fischer 344, males, i.p., site: any site (literature study), lesion: one or several types, types not named, dosed 52 weeks, study length 52 weeks) turn out when `O=C1NC(O)CCN1[C@@H]1O[C@H](CO)[C@@H](O)[C@H]1O` (stereo not given in full) was run?
Answer: Its TD50 is 15.7 mg/kg/day.

Reference: PubChem BioAssay AID1745844 (Carcinogenic Potency Database (CPDB), 2022)
